Source: article PMC10190849, “Rationally designed modular drug delivery platform based on intracellular peptide self‐assembly” (Exploration, 2021)
No end group written: not given here. *: point of attachment. FITC = O=C1OC2(c3ccc(O)cc3Oc3cc(O)ccc32)c2ccc(NC(=S)*)cc21

Columns and labels:
[1] = system: XIAP positive cell lines (H460, 786-O, EJ, RT112); assay: CLSM imaging of cells coincubated with MDS molecules, XIAP positive cell lines; format: cell-based; settings: 50 μM, 37 °C, 1 h, PBS washing
From the text: (§1) Drug delivery efficacy is one of the decisive factors for evaluating the drug delivery systems.
In order to evaluate the drug delivery efficacy, we directly observed the Py fluorescence by CLSM imaging. […] In addition, we performed the cell section analysis and directly observed the morphology of assemblies intracellularly (Figure 8D). The intracellular formed nanofibers confirmed the controllable in situ assembly of MDS. All those results verified that the drug delivery system was feasible for highly efficient drug delivery.
Cell culturing and CLSM imaging: H460, 786-O, L929 cell lines and EJ, RT112 cell lines were cultured in PRMI-1640 and DMEM respectively with 10% (v: v) fetal bovine serum, 1% penicillin–streptomycin in an incubator (Thermo Scientific) at 37 °C with 5% CO2 and 95% relative humidity. For observing the selectivity of MDS by CLSM imaging, all the cell lines were seeded with 1 x 10^5 cells per well, and cultured for 24 h, the cells were incubated with 50 μM Pβ-R4C and Pβ-R4F respectively at 37 °C for 1 h and followed by PBS washing. Subsequently, the cells were stained with Hoechst 33342 (1 mg ml^-1) at 37 °C for 10 min. Finally, the cells were washed by PBS twice and immediately observed under confocal laser scanning microscopy. […]

[2] = system: XIAP negative cell line L929; assay: CLSM imaging of cells coincubated with MDS molecules, XIAP negative cell line; format: cell-based; settings: 50 μM, 37 °C, 1 h, PBS washing
Experimental: as §1
Cell culturing and CLSM imaging: H460, 786-O, L929 cell lines and EJ, RT112 cell lines were cultured in PRMI-1640 and DMEM respectively with 10% (v: v) fetal bovine serum, 1% penicillin–streptomycin in an incubator (Thermo Scientific) at 37 °C with 5% CO2 and 95% relative humidity. For observing the selectivity of MDS by CLSM imaging, all the cell lines were seeded with 1 x 10^5 cells per well, and cultured for 24 h, the cells were incubated with 50 μM Pβ-R4C and Pβ-R4F respectively at 37 °C for 1 h and followed by PBS washing. Subsequently, the cells were stained with Hoechst 33342 (1 mg ml^-1) at 37 °C for 10 min. Finally, the cells were washed by PBS twice and immediately observed under confocal laser scanning microscopy. For observing the selective drug accumulation by CLSM imaging, the H460 cell and L929 cells were seeded with 1 x 10^5 cells per well, and cultured for 24 h, then cells were incubated with 50 μM Pβ-R4C-D for 1 h, followed by PBS washing and observed by CLSM.

[3] = TEM imaging of assembled morphology and diameters; format: physicochemical; settings: result in words
From the text: To further confirm our speculation, we observe the assembled morphology of these molecules under its CAC concentrations. […] As those results indicated, the modification position of fluorescence molecules largely influenced the dispersity of designed molecules. […] As a threshold, the %SASA value around 75% distinguishes between assembly and soluble states. Thus, the optimal choice for modification position is decisive in %SASA regulation for successful molecular design.
In order to achieve a highly ordered superstructure in vivo, it is necessary to transfer the precursor with higher CAC content to the monomer with lower CAC content at the desired position under the trigger of some chemical reactions. In this work, the pre‐designed molecules trigger the conversion of precursors to monomers transformation through enzyme‐directed hydrolysis, and the substrate (DEVD) was cleaved by caspase 3/7. Due to the increased hydrophobicity and conformational changes, the resultant product further self‐assembled into the required superstructure. The previous study in this work confirmed five molecules with higher dispersity (Pβ‐R4C, Pα‐R4C, Pβ‐R4F, Pβ‐R4P, Pβ‐R4C‐D). Here, we studied the self‐assembly properties of […] related residues of these highly soluble molecules (R‐R4C, R‐R4F, R‐R4P, R‐R4C‐D).^[ [21] ^] […]

[4] = ThT (Thioflavin T) assay, critical aggregation/assembly concentration and dispersibility; format: physicochemical; settings: dose dependent assembling profile after incubation with ThT, Figure 3A
Experimental: For intracellular self-assembly, the rapid transformation from dispersed state to aggregate state in desired site is required. In other words, the molecules need to be stable monomeric states at other locations and present self-assembled states at the required locations. Therefore, location-specific self-assembly characteristics are the decisive factors for the success of molecular design. […] Then, different modification on four domains were carried out to evaluate its dispersity and self-assembly properties. We carried out ThT (Thioflavin T) analytic assay to evaluate whether those predesigned molecules presented relatively dispersed state. ThT is a sensitive probe to the lamellar β-sheet structure. When exposed to the lamellar β-sheet structure, ThT fluorescence was enhanced due to inserting into the lamellar structure.^[ [17] ^] […] In order to validate our hypophysis and quantitively determine the solubility of those molecules, we calculated the critical assembly concentration (CAC) of those molecules based on the ThT analysis. […] However, other molecules with R4 domain modifications all presented a higher CAC with ≥400 μM. […] ThT assay: the ThT assay was utilized to calculate the critical assembling concentration. […] Next, the fluorescence of ThT was measured with the excitation wavelength with 450 nm. Finally, the fluorescence intensity was recorded and normalized.

Substance | fluorescent signal in cells (CLSM) [1] | fluorescent signal in cells (CLSM) [2] | assembled morphology (TEM) [3] | molecular concentration at which ThT fluorescence obviously increased [4] [µM]
AVPIAQKDEVDKLVFFAEC(Cy)G [Pβ-R4C, Pβ with fluorescent molecule Cy linked in R4 domain] | strong Cy and FITC fluorescent signal | No obvious fluorescent signal | – | –
AVPIAQKDEVDGC(Cy)KLVFFAEG [Pβ-R2C, Pβ with GC on R2 domain conjugated with Cy] | – | – | nanofibrous structures | 200
AVPIAQKDEVDKLVFFAEC(FITC)G [Pβ-R4F, Pβ with FITC in R4 domain] | strong Cy and FITC fluorescent signal | No obvious fluorescent signal | – | –
